Results as given in PMC10213809 (Cell Reports Medicine, 2023).
“Also recorded” adds a separate entry of the source.

Columns and labels:
CHIKV [1] = type: cell-based, Chikungunya virus; conditions: for inhibition of CHIKV, primary screen: HFF-1
WNV [2] = type: cell-based, West Nile virus; conditions: for infectivity against WNV at the highest non-toxic dose: 100 μg/mL; for infectivity against WNV at the highest non-toxic dose / inhibition of WNV, primary screen: HFF-1; for antiviral activity (inhibition) against WNV, primary screen: HFF-1, moderate antiviral activity
ZIKV = type: cell-based, Zika virus; conditions: HFF-1; for infectivity against ZIKV at the highest non-toxic dose: 100 μg/mL
CHIKV [3] = test: Viral-mediated cytopathic effect / cell death in infected HFF-1 cells; type: cell-based, Chikungunya virus; conditions: HFF-1, 48 hpi, effective concentration
[4] = system: arboviruses (CHIKV, WNV, ZIKV); test: qRT-PCR of viral genome replication in drug-treated fibroblasts at 48 hpi; type: cell-based
[5] = system: TBK-IRF3 signaling cascade; type: cell-based, human; conditions: HFF-1, pretreatment, uninfected cells
RSV = type: cell-based, respiratory syncytial virus
CHIKV [6] = type: cell-based, Chikungunya virus
WNV [7] = type: cell-based, West Nile virus
CHIKV [8] = test: RNA sequencing of drug-treated CHIKV-infected HFF-1 cells; type: cell-based, Chikungunya virus; conditions: for viral genome reads of the total reads: RNA sequencing
HFF-1 cells [9] = test: NAD/NADH-Glo assay, intracellular NADH; type: cell-based, human; conditions: HFF-1, 48 hpi
HFF-1 cells [10] = test: Intracellular ATP level; type: cell-based, human; conditions: CHIKV-infected HFF-1, 48 hpi
CHIKV (strain 181/25) [11] = test: Histopathology and IHC of CHIKV-infected mouse footpad; type: in vivo
CHIKV (strain 181/25) [12] = test: CHIKV arthritis mouse model
CHIKV [13] = type: cell-based, Chikungunya virus; conditions: read-out: IC50, antiviral activity against CHIKV; human fibroblasts (HFF-1), eight-dose response
[14] = system: STING-IRF3 and STING-NF-κB pathways; type: cell-based, human; conditions: HFF-1, 2 h post-stimulation
CHIKV [15] = type: cell-based, Chikungunya virus; remark: listed apart in the source

Nc1nc2c(ncn2[C@@H]2O[C@@H]3COP(=O)(O)O[C@H]4[C@@H](O)[C@H](n5cnc6c(N)ncnc65)O[C@@H]4COP(=O)(O)O[C@@H]2[C@@H]3O)c(=O)[nH]1 [2'3'-cGAMP, 2′,3′-cGAMP]
infectivity against CHIKV at the highest non-toxic dose (CHIKV [1]): below-detectable infectivity | infectivity against WNV at the highest non-toxic dose (WNV [2]): below-detectable infectivity | infectivity against ZIKV at the highest non-toxic dose (ZIKV): below-detectable infectivity | viral-mediated cytopathic effect (CPE) (CHIKV [3]): prevented CPE | viral genome replication (qRT-PCR) [4]: significantly reduced | phosphorylation of IRF3 (western blot) [5]: induced phosphorylation of IRF3

Nc1nc2c(ncn2[C@@H]2O[C@@H]3COP(=O)(O)O[C@H]4[C@@H](O)[C@H](n5cnc6c(N)ncnc65)O[C@@H]4COP(=O)(O)O[C@H]3[C@H]2O)c(=O)[nH]1 [3'3'-cGAMP, 3′,3′-cGAMP]
infectivity against CHIKV at the highest non-toxic dose (CHIKV [1]): below-detectable infectivity | infectivity against WNV at the highest non-toxic dose (WNV [2]): below-detectable infectivity | infectivity against ZIKV at the highest non-toxic dose (ZIKV): below-detectable infectivity | viral-mediated cytopathic effect (CPE) (CHIKV [3]): prevented CPE | phosphorylation of IRF3 (western blot) [5]: induced phosphorylation of IRF3

O=c1cnn([C@@H]2O[C@H](CO)[C@@H](O)[C@H]2O)c(=O)[nH]1 [6-azauridine, 6-Azauridine]
inhibition of RSV infection (RSV): efficient inhibition

CCCCCCCCCCCCCCCC(=O)OCC(CSC[C@H](N)C(=O)N[C@@H](CO)C(=O)N[C@@H](CCCCN)C(=O)N[C@@H](CCCCN)C(=O)N[C@@H](CCCCN)C(=O)N[C@@H](CCCCN)C(=O)Nc1ccc(Cn2c(O)nc3c(N)nc(NCCCC)nc32)cc1)OC(=O)CCCCCCCCCCCCCCC (some centres unmarked) [Adilipoline(CL413)]
effect on viral replication, primary screen (Figure 1C) (CHIKV [1]): enhanced viral replication

CC(C)Cn1cnc2c(N)nc3ccccc3c21 [Imiquimod]
inhibition of CHIKV, primary screen (CHIKV [1]): not against CHIKV | inhibition of WNV, primary screen (WNV [2]): potent inhibition | antiviral activity (inhibition) against WNV, primary screen (WNV [2]): > 50% | inhibition of ZIKV, primary screen (ZIKV): potent inhibition | viral genome replication (qRT-PCR) [4]: significantly reduced

CC(=O)N[C@@H]1[C@@H](O[C@H](C)C(=O)N[C@@H](C)C(=O)N[C@H](CCC(=O)O)C(N)=O)[C@H](O)[C@@H](CO)O[C@H]1O [MDP]
inhibition of CHIKV, primary screen (CHIKV [1]): not against CHIKV | inhibition of WNV, primary screen (WNV [2]): potent inhibition | inhibition of ZIKV, primary screen (ZIKV): potent inhibition

CCC(CC)COC(=O)[C@H](C)N[P@](=O)(OC[C@H]1O[C@@](C#N)(c2ccc3c(N)ncnn23)[C@H](O)[C@@H]1O)Oc1ccccc1 [Remdesivir]
antiviral activity against CHIKV (CHIKV [6]): no effective antiviral activity; also recorded: not active | antiviral activity against WNV (WNV [7]): no effective antiviral activity; also recorded: not active | inhibition of RSV infection (RSV): efficient inhibition

Nc1ncnc2c1ncn2[C@@H]1O[C@@H]2COP(=O)(O)O[C@H]3[C@@H](O)[C@H](n4cnc5c(N)ncnc54)O[C@@H]3COP(=O)(O)O[C@H]2[C@H]1O [c-di-AMP]
antiviral activity (inhibition) against WNV, primary screen (WNV [2]): > 50%

Nc1nc2c(ncn2[C@@H]2O[C@@H]3COP(=O)(O)O[C@H]4[C@@H](O)[C@H](n5cnc6c(=O)[nH]c(N)nc65)O[C@@H]4COP(=O)(O)O[C@H]3[C@H]2O)c(=O)[nH]1 [c-di-GMP]
effect on viral replication, primary screen (Figure 1C) (CHIKV [1]): enhanced viral replication | inhibition of CHIKV, primary screen (CHIKV [1]): not against CHIKV | inhibition of WNV, primary screen (WNV [2]): potent inhibition | inhibition of ZIKV, primary screen (ZIKV): potent inhibition

Nc1ncnc2c1ncn2[C@@H]1O[C@@H]2COP(=O)(O)O[C@H]3[C@@H](O)[C@H](n4cnc5c(=O)[nH]cnc54)O[C@@H]3COP(=O)(O)O[C@H]2[C@H]1O [cAIMP]
antiviral activity, post-treatment of CHIKV-infected cells (CHIKV [1]): potent antiviral activity | infectivity against CHIKV at the highest non-toxic dose (CHIKV [1]): below-detectable infectivity | infectivity against WNV at the highest non-toxic dose (WNV [2]): below-detectable infectivity | infectivity against ZIKV at the highest non-toxic dose (ZIKV): below-detectable infectivity | viral-mediated cytopathic effect (CPE) (CHIKV [3]): prevented CPE | viral genome replication (qRT-PCR) [4]: significantly reduced | phosphorylation of IRF3 (western blot) [5]: induced phosphorylation of IRF3 | HEATR9 expression induced by CHIKV (CHIKV [8]; CHIKV-infected HFF-1): reversed the induction | reduction of viral gene expression compared with untreated infected cells (CHIKV [8]; CHIKV-infected HFF-1, 24 hpi): about 880 fold | viral genome reads of the total reads (CHIKV [8]; CHIKV-infected HFF-1, 24 hpi): 0.1% | nicotinamide adenine dinucleotide (NADH) levels (HFF-1 cells [9]): increased | intracellular ATP (HFF-1 cells [10]): prevented ATP depletion | inflammatory cellular infiltration, therapeutic (CHIKV (strain 181/25) [11]; cAIMP 10 mg/kg i.p. at 6 or 12 hpi, left footpad): reducing | pathological changes and left-rear footpad swelling (histopathology) (CHIKV (strain 181/25) [11]; cAIMP pretreatment, 7 dpi): prevented | volume of footpad swelling, chronic long-term follow-up (CHIKV (strain 181/25) [12]; 14-month-old mice, cAIMP pretreatment, up to 2 months post-infection): significantly reduced | virus replication, chronic long-term follow-up (CHIKV (strain 181/25) [12]; 14-month-old mice, cAIMP pretreatment, up to 2 months post-infection (59 dpi)): significantly reduced | inflammatory gene expression, therapeutic (CHIKV (strain 181/25) [12]; mouse, cAIMP 10 mg/kg i.p. at 6 or 12 hpi, left footpad): reducing | viral replication, therapeutic (CHIKV (strain 181/25) [12]; mouse, cAIMP 10 mg/kg i.p. single dose at 6 or 12 hpi): reducing | footpad swelling, therapeutic (CHIKV (strain 181/25) [12]; mouse, cAIMP 10 mg/kg i.p. single dose at 6 or 12 hpi, up to 21 dpi): protected the animals from significant footpad swelling | CHIKV-mediated footpad swelling, prophylactic (CHIKV (strain 181/25) [12]; mouse, cAIMP 10 mg/kg i.p. single dose at day -1, observed 7 days): significantly prevented | body weight changes (CHIKV (strain 181/25) [12]; mouse, cAIMP at 6 or 12 h post-CHIKV infection): No significant body weight changes | reduction in viral genome replication in left-rear footpad (qRT-PCR) (CHIKV (strain 181/25) [12]; mouse, cAIMP pretreatment 10 mg/kg i.p., day 3): 2 log | expression of inflammatory genes Ccl2, Il-6 and Il-10 in left footpad (CHIKV (strain 181/25) [12]; mouse, cAIMP-pretreated, 7 dpi): significant downregulation

CCn1nc(C)cc1C(=O)Nc1nc2cc(C(N)=O)cc(OC)c2n1C/C=C/Cn1c(NC(=O)c2cc(C)nn2CC)nc2cc(C(N)=O)cc(OCCCN3CCOCC3)c21 [diABZI]
antiviral activity, post-treatment of CHIKV-infected cells (CHIKV [1]): potent antiviral activity | IC50 (CHIKV [13]): 10.1 nM | viral-mediated cytopathic effect (CPE) (CHIKV [3]): prevented CPE | viral genome replication (qRT-PCR) [4]: significantly reduced | phosphorylation of IRF3 (western blot) [5]: induced phosphorylation of IRF3

Scleroglucan
antiviral activity (inhibition) against WNV, primary screen (WNV [2]): > 50% | viral-mediated cytopathic effect (CPE) (CHIKV [3]): prevented CPE | phosphorylation of IRF3 (Ser386) [14]: only a few cells have a cytoplasmic form of phospho-IRF3 | phosphorylation of STING (Ser366) [14]: did not have detectable levels | viral genome replication (qRT-PCR) [4]: significantly reduced | phosphorylation of IRF3 (western blot) [5]: only the basal level | viral genome reads of the total reads (CHIKV [8]; CHIKV-infected HFF-1, 24 hpi): 63% | CHIKV productive infection / replication in PSC-CMs (CHIKV [15]): inhibited; also recorded: moderately reducing
